In patent US20130224151A1, “Use of FAAH Inhibitors for Treating Abdominal, Visceral and Pelvic Pain” (UNITED STATES OF AMERICA, priority 2010, published 2013):
“Also recorded” adds a separate entry of the source.

How the values were obtained:
Assay type in all cases: in vivo, rat
[1] = tested on: Male Sprague Dawley (SD) rats; assay: Cortagine-induced visceral hypersensitivity to colorectal distension; conditions: for antihyperalgesic effects in the cortagine model of visceral pain: summary statement referring to Example 3
Description: Male Sprague Dawley (SD) rats (250-275 g, Harlan Labs, Indianapolis, Ind.) were kept under standard conditions of humidity and temperature and a 12-hour light/dark cycle (lights on 6.00 a.m.). Animals were group housed and had access to food ad libitum. Prior to the start of studies, animals were acclimatized to handling and administration of treatments (oral syringe feeding and subcutaneous injection). At the end of the experiments, animals were sacrificed by CO2 gas inhalation followed by thoracotomy or isoflurane anesthesia followed by decapitation with appropriate approved animal protocols.
On the day of the experiments, rats were injected intraperitoneally (IP) with cortagine (10 μg/kg, 0.8 ml/kg in DMSO/cremophor/isotonic saline (1:1:8 v:v:v). Cortagine, a selective corticotropin releasing factor receptor 1 (CRF1) agonist, prepared as described previously (Rivier et al. J. Med. Chem. 2007: 50:1668-1674), was stored in a powder form at −80° C. and prepared in sterile water (12.5 μg/ml) immediately before use. This dose had previously been established to show a significant increase in defecation, induction of diarrhea and increase in colonic motility, permeability and visceral pain in rats. (Larauche et al. Am. J. Physiol. Gastrointest. Liver Physiol. 2009: 297:G215-G227)
FAAH inhibitor compounds URB597 [3′-(aminocarbonyl)biphenyl-3-yl cyclohexyl carbamate], compound A and compound B were formulated as suspensions in DMSO/cremophor/isotonic saline (1:1:8 v:v:v). The concentration of the respective dosing FAAH inhibitor compound suspensions were 6 mg/ml for 30 mg/kg dose of compound A or compound B; 2 mg/ml for the 10 mg/kg dose of compound B; and 1.5 mg/ml for the 3 mg/kg dose of URB597. Compound A, compound B or vehicle treatment was administered to rats by per os (PO) route at dose-volume of 5 ml/kg. URB597 treatment was administered to rats by subcutaneous (SC) route at dose volume of 2 ml/kg. The vehicle for the PO route was DMSO/cremophor/isotonic saline (1:1:8 v:v:v). Vehicle (PO), URB597 (SC), compound A and compound B (PO) were administered to non-fasted rats, restrained by hand. The regimen of administration of URB597, compound A and compound B involved one delivery (PO or SC) performed 120 min before IP injection of cortagine.
Visceral pain was assessed using a non-invasive pressure transducer system referred to as “sensor balloon” as previously described (Larauche et al. Am. J. Physiol. Gastrointest. Liver Physiol. 2009: 297:G215-G227; Ness et al. Brain Res. 1988: 450:153-169). Briefly, in adult non-fasted SD rats, a 4-5 cm “sensor balloon” lubricated with surgical lubricant (Surgilube, Fougera, Melville) was inserted intra-anally under brief isoflurane anesthesia. The “sensor balloon” was positioned such that its distal end was 1 cm proximal to the anal verge and secured in place by tapping the balloon catheter to the tail. Rats were placed individually in Boolman's cage and allowed to recover from anesthesia and habituation. The colorectal procedure was performed using the Distender Series Ilir dual barostat (G&J Electronics Inc, Toronto, Ontario). The CRD protocol consisted of 2 CRD at 60 mmHg to unfold the balloon followed by 2 sets of CRD at 10, 20, 40 and 60 mmHg, 20 s duration, 4-min inter-stimulus interval. The intra-luminal colonic pressure (ICP) was recorded for 20 s before, during and after termination of CRD. […]

Female Wistar rats [2] = assay: Basal sensitivity to colorectal distension model; conditions: 30 mg/kg by oral gavage; CRD measured 2 hrs later; 0-60 mmHg
Female Wistar rats [3] = assay: Partial restraint stress-induced hyperalgesia model; conditions: 30 mg/kg orally, 1 hr 15 min into 2 hr PRS; CRD 2 hrs later; 45 and 60 mmHg
Description: Female Wistar rats surgically prepared for electromyography as described in Example 1 were used to evaluate the effects of the FAAH inhibitors (a) compound A or (b) compound B, on colorectal sensitivity and compliance after a 2 hour partial restraint stress session.
Partial restraint stress (PRS), a relatively mild stress, was induced as previously described (Morteau et al. Dig. Dis. Sci. 1994: 39:1239-48; “Guanylate cyclase C-mediated antinociceptive effects of linaclotide in rodent models of visceral pain”, Eutamene H, Bradesi S, Larauche M, Theodorou V, Beaufrand C, Ohning G, Fioramonti J, Cohen M, Bryant A P, Kurtz C, Currie M G, Mayer E A, Bueno L, Neurogastroenterology and motility —2010 Volume: 22 p. 312-322; “Stress-induced changes in intestinal transit in the rat: a model for irritable bowel syndrome”, Williams C L, Villar R G, Peterson J M, Burks T F, Gastroenterology—1988 p. 611-21). Female rats were lightly anesthetized with diethyl ether and their shoulders, upper forelimbs and thoracic trunk were wrapped in a confining harness of paper tape to restrict, but not prevent body movements. Control sham-stress animals were anesthetized but not wrapped. […]
Rats were treated orally with compound A (30 mg/kg in DMSO/cremophor/isotonic saline (1:1:8 v:v:v), n=8), or vehicle only (DMSO/cremophor/isotonic saline (1:1:8 v:v:v), 1 mL, n=9) with or without 2 hour PRS sessions. The number of abdominal contractions was recorded by electromyography per 5-minute period (y axis) for each distension pressure of 0 mmHg, 15 mmHg, 30 mmHg, 45 mmHg and 60 mmHg (x axis); the ? symbols represent the results for the control+vehicle group (n=9); the symbols ? represent the results for the stress+vehicle group (n=9); the symbols ? represent the results for the stress+compound A group (n=8). Data are mean values with SEM.
Rats were treated orally with compound B (30 mg/kg in DMSO/cremophor/isotonic saline (1:1:8 v:v:v), n=9), or vehicle only (DMSO/cremophor/isotonic saline (1:1:8 v:v:v), 1 mL, n=9) with or without 2 hour PRS sessions. The number of abdominal contractions was recorded by electromyography per 5-minute period (y axis) for each distension pressure of 0 mmHg, 15 mmHg, 30 mmHg, 45 mmHg and 60 mmHg (x axis); the symbols ? represent the results for the control+vehicle group (n=9); the symbols ? represent the results for the stress+vehicle group (n=9); and the symbols ? represent the results for the stress+compound B group (n=9). Data are mean values with SEM.
The effect of FAAH inhibitor URB597 was tested at 3 mg/kg and 10 mg/kg in the PRS model of visceral hyperalgesia essentially as described in Examples 1 and 2. URB597 was formulated as a suspension in vehicle [DMSO/cremophor/isotonic saline (1:1:8 v:v:v)]. […]

[4] = 30 mg/kg PO 2 h before cortagine
[5] = 30 mg/kg PO 2 h before cortagine 10 μg/kg IP, 40 and 60 mmHg, did not reach statistical significance
[6] = 30 mg/kg PO 2 h before cortagine, n=11
[7] = 10 mg/kg PO 2 h before cortagine, normalized to baseline VMR at 60 mmHg

COc1ccc2c(c1)c(C(=O)C(=O)Nc1cccc(Cl)c1)c(C)n2Cc1ccc(Cl)cc1 [compound A, 2-(1-(4-chlorobenzyl)-5-methoxy-2-methyl-1H-indol-3-yl)-N-(3-chlorophenyl)-2-oxoacetamide]
rats with increased VMR between 0 and 50% at 60 mmHg [1, 4]: 18%
rats with increased VMR between 51 and 100% at 60 mmHg [1, 4]: 27%
rats with increased VMR over 101% at 60 mmHg [1, 4]: 9%
effect on cortagine-induced visceral hypersensitivity to CRD [1, 5]: trend to decrease the cortagine-induced visceral hypersensitivity; also recorded: trend to reduce cortagine-induced visceral hypersensitivity
rats presenting an increased VMR over baseline (% hypersensitive rats) at 60 mmHg [1, 6]: 55%
antihyperalgesic effects in the cortagine model of visceral pain [1]: exhibit antihyperalgesic effects
basal sensitivity to colorectal distension (number of abdominal contractions per 5-minute period) (Female Wistar rats [2]): neither compound A nor compound B alters basal sensitivity
abdominal contractions versus stress+vehicle control (Female Wistar rats [3]): non-significant trend towards attenuation of abdominal contractions; also recorded: exhibit antihyperalgesic effects

COc1cc(NC(=O)C(=O)c2c(C)n(Cc3ccc(Cl)cc3)c3ccc(C)cc23)ccn1 [compound B, 2-(1-(4-chlorobenzyl)-2,5-dimethyl-1H-indol-3-yl)-N-(2-methoxypyridin-4-yl)-2-oxoacetamide]
% hypersensitive rats at 40 mmHg ([1]; 10 mg/kg PO 2 h before cortagine): 36%
effect on cortagine-induced visceral hypersensitivity to CRD ([1]; 10 mg/kg PO 2 h before cortagine 10 μg/kg IP): abolished the visceral hypersensitivity; also recorded: prevented the visceral hypersensitivity
rats presenting a decrease in VMR compared to baseline at 60 mmHg ([1]; 10 mg/kg PO 2 h before cortagine, n=11): 64%
rats presenting an increased VMR over baseline (% hypersensitive rats) at 60 mmHg ([1]; 10 mg/kg PO 2 h before cortagine, n=11, all increases between 0 and 50%): 36%
VMR to CRD at 40 mmHg [1, 7]: 84.74±13.54%
VMR to CRD at 60 mmHg [1, 7]: 87.75±10.96%
rats with increased VMR between 0 and 50% at 60 mmHg [1, 4]: 45%
rats with increased VMR over 101% at 60 mmHg [1, 4]: 9%
effect on cortagine-induced visceral hypersensitivity to CRD [1, 5]: trend to dampen the development of the visceral hypersensitivity; also recorded: trend to reduce cortagine-induced visceral hypersensitivity
rats presenting an increased VMR over baseline (% hypersensitive rats) at 60 mmHg [1, 6]: 55%
antihyperalgesic effects in the cortagine model of visceral pain [1]: exhibit antihyperalgesic effects
basal sensitivity to colorectal distension (number of abdominal contractions per 5-minute period) (Female Wistar rats [2]): neither compound A nor compound B alters basal sensitivity
abdominal contractions versus stress+vehicle control (Female Wistar rats [3]): significantly reduced abdominal contractions; also recorded: exhibit antihyperalgesic effects
